# Measurements as given in PMC6141879, “How Does the Sweet Violet (Viola odorata L.) Fight Pathogens and Pests – Cyclotides as a Comprehensive Plant Host Defense System” (Frontiers in Plant Science, 2018).
# Where a SMILES comes first, the peptide text is derived from it. Bridges are numbered along the chain shown (N, C = ends).
# Experiments:
# [1] = tested on: Pseudomonas syringae pv. syringae strain Pss-762; test: Antibacterial MIC assay (CLSI), P. syringae pv. syringae; assay type: cell-based; details: M9 minimal medium with 0.4% glucose, 24 h, 28°C, 1.5 × 10^6 CFU ml^-1, OD600 < 0.1, triplicate, repeated three times
# Method: Cyclotides (cycloviolacin O2, O3, and O19) at concentrations of 0.78–100 μM were tested for activity against three bacterial plant pathogens: Pseudomonas syringae pv. syringae strain Pss-762 ([Taraszkiewicz et al., 2012]), Dickeya dadantii strain 3937 ([Glasner et al., 2011]) and Pectobacterium atrosepticum SCRI 1043 ([Bell et al., 2004]). Experiments were conducted according to the CLSI guidelines ([Clinical and Laboratory Standards Institute [CLSI], 2012]) using standard CA-MHB medium (BBL^TM Mueller-Hinton II Broth cation-adjusted, Becton Dickinson) or M9 minimal medium (per L: 6 g Na2HPO4, 3g KH2PO4, 0.5 g NaCl, 1 g NH4Cl) supplemented with glucose to a final concentration of 0.4%. Bacterial colonies from 24 h old cultures on TSA (trypticase soy agar, BioMerieux) plates were used to inoculate CA-MHB or M9 minimal medium and set up liquid cultures. Next, late log phase bacterial cultures were diluted to 0.5 McFarland standard, as determined by densimetry in the relevant medium (DensiMeter II, EMO, Brno). […] The minimal inhibitory concentration (MIC) of each cyclotide was determined as the lowest concentration required to inhibit bacterial growth, i.e., to reduce the culture’s OD600 to less than 0.1. OD600 values were measured with a microplate reader (EnVision^TM Multilabel Plate Reader, Perkin Elmer). […]
# Alternaria alternata = details: 72 h
# [2] = tested on: Pectobacterium atrosepticum SCRI 1043; details: 24 h
# Mycosphaerella fragariae = details: 48 h
# [3] = Liposome leakage assay, fungal membrane model; details: read-out: EC50 of liposome permeabilization (carboxyfluorescein leakage); S. cerevisiae polar lipid extract:ergosterol 7:3 liposomes, Tris buffer, 45 min, % of Triton X-100 leakage, triplicate
# [4] = tested on: Colletotrichum utrechtense; details: 72 h
# Botrytis cinerea = details: 48 h
# [5] = tested on: Dickeya dadantii strain 3937; details: 24 h
# Fusarium graminearum = details: 48 h
# Fusarium culmorum = details: 48 h
# F. oxysporum = test: Cyclotide stability assay in F. oxysporum culture; assay type: in vitro ADME, Fusarium oxysporum; details: 5 days old F. oxysporum culture (3000 spores in 150 μl 24 g l^-1 PDB), 5 μg cyO2 per well, 3 days, HPLC-UV 280 nm AUC relative to time 0, mean of triplicates, unaltered molecular mass
# Method: Freshly harvested F. oxysporum spores were grown in microplates (3000 spores in 150 μl of 24 g l^-1 PDB per well) on a rotary shaker. After 5 days of incubation, 5 μg of cyO2 in 10 μl of Milli-Q water was added to each well. Samples of the medium and mycelia were collected in Eppendorf tubes immediately after adding cyO2 (time 0) and after incubation with the cyclotide for 2, 4, 8h, 1, 2, and 3 days. The samples were freeze-dried, crushed with a pestle, and extracted with 200 μl of buffer B for 4 h on the rotary shaker. After centrifugation, the supernatant was collected, freeze-dried and reconstituted in buffer A for analysis by HPLC-UV-ESI-MS. HPLC was performed over 18 min using an LC-20 UFLC system (Shimadzu, Japan) with photodiode array detector (PDA) and a Waters (Milford, MA) XTerra MS C18 HPLC column (2.1 × 50 mm, with a particle size of 2.5 μm) at a flow rate of 0.5 ml min^-1 with a linear gradient from 5% to 60% ACN and 0.1% formic acid in water. ESI-MS detection was used to identify the cyO2 peak and to detect modifications of the peptide that may have been introduced by the fungus. For each incubation time, the peaks in the 280 nm UV chromatogram corresponding to cyO2 were integrated, and the mean area under the curve (AUC) for each incubation time was computed from independent triplicates. […]
# Fusarium oxysporum = details: 0 h
# [6] = tested on: seven fungal plant pathogens; details: 0 h
SMILES,MIC [1] [µM],MIC (Alternaria alternata) [µM],MIC [2] [µM],MIC (Mycosphaerella fragariae) [µM],EC50 [3] [nM],MIC [4] [µM],MIC (Botrytis cinerea) [µM],MIC [5] [µM],MIC (Fusarium graminearum) [µM],MIC (Fusarium culmorum) [µM],initially added amount recovered after co-culture with F. oxysporum (F. oxysporum) [%],MIC at the inoculum used for immunogold labeling (Fusarium oxysporum) [µM],"MICs, range or bound over the tested fungi [6] [µM]"
"CC[C@H](C)[C@@H]1NC(=O)[C@@H]2CSSC[C@@H]3NC(=O)[C@H](C(C)C)NC(=O)[C@H](CCCCN)NC(=O)[C@H](CO)NC(=O)[C@H](CCCCN)NC(=O)[C@@H]4CSSC[C@H](NC(=O)[C@H](CO)NC(=O)[C@H](CCC(=O)O)NC(=O)CNC(=O)[C@H](CSSC[C@H](NC(=O)CNC(=O)[C@H](C(C)C)NC(=O)[C@H](C(C)C)NC(=O)[C@H](CO)NC(=O)[C@H](CO)NC1=O)C(=O)N[C@@H](CO)C(=O)N4)NC(=O)[C@@H]1CCCN1C(=O)[C@H](CC(C)C)NC(=O)[C@H]([C@@H](C)O)NC(=O)CNC(=O)[C@H](CC(=O)O)NC(=O)[C@H](CCCCN)NC(=O)[C@H](Cc1ccc(O)cc1)NC3=O)C(=O)N[C@@H](C(C)C)C(=O)N[C@@H](Cc1c[nH]c3ccccc13)C(=O)N[C@@H]([C@@H](C)CC)C(=O)N1CCC[C@H]1C(=O)N2 [cyO19] (cyclo(CGESCVWIPCISSVVGCSCKSKVCYKDGTLP); disulfide 1-17, 5-19, 10-24)",25,1.5,100,>25,80,6.25,1.5,75,12.5,1.5,–,–,–
"CC[C@H](C)[C@@H]1NC(=O)[C@H](C)NC(=O)[C@H](CO)NC(=O)[C@H](CO)NC(=O)[C@H]([C@@H](C)CC)NC(=O)[C@@H]2CSSC[C@@H]3NC(=O)[C@H](C(C)C)NC(=O)[C@H](CCCCN)NC(=O)[C@H](CO)NC(=O)[C@H](CCCCN)NC(=O)[C@@H]4CSSC[C@H](NC(=O)[C@H](CO)NC(=O)[C@H](CCC(=O)O)NC(=O)CNC(=O)[C@H](CSSC[C@H](NC(=O)CNC1=O)C(=O)N[C@@H](CO)C(=O)N4)NC(=O)[C@@H]1CCCN1C(=O)[C@H]([C@@H](C)CC)NC(=O)CNC(=O)[C@H](CC(N)=O)NC(=O)[C@H](CCCNC(=N)N)NC(=O)[C@H](Cc1ccc(O)cc1)NC3=O)C(=O)N[C@@H](C(C)C)C(=O)N[C@@H](Cc1c[nH]c3ccccc13)C(=O)N[C@@H]([C@@H](C)CC)C(=O)N1CCC[C@H]1C(=O)N2 [cyO2, cycloviolacin O2] (cyclo(AIGCSCKSKVCYRNGIPCGESCVWIPCISS); disulfide 4-18, 6-22, 11-27 (inferred); ring closure inferred)",–,1.5,100,>25,72,6.25,–,75,6.25,1.5,~100,80,–
CC(C)C[C@@H]1NC(=O)CNC(=O)[C@H](CC(N)=O)NC(=O)[C@H](CCCNC(=N)N)NC(=O)[C@H]([C@@H](C)O)NC(=O)[C@@H]2CSSC[C@@H]3NC(=O)[C@H]([C@@H](C)O)NC(=O)CNC(=O)CNC(=O)[C@H](C(C)C)NC(=O)[C@@H]4CSSC[C@H](NC(=O)[C@H](CO)NC(=O)[C@H](CSSC[C@H](NC(=O)[C@H](C(C)C)NC(=O)[C@@H]5CCCN5C1=O)C(=O)NCC(=O)N[C@@H](CCC(=O)O)C(=O)N[C@@H]([C@@H](C)O)C(=O)N4)NC(=O)CNC(=O)[C@@H]1CCCN1C(=O)[C@H]([C@@H](C)O)NC(=O)[C@H](CC(N)=O)NC3=O)C(=O)N[C@@H](CO)C(=O)N[C@@H](Cc1c[nH]c3ccccc13)C(=O)N1CCC[C@H]1C(=O)N[C@@H](C(C)C)C(=O)N2 [varv A],–,–,–,>80,–,–,80,–,40,40,–,–,–
"CC(C)C[C@@H]1NC(=O)CNC(=O)[C@H](CC(N)=O)NC(=O)[C@H](CCCNC(=N)N)NC(=O)[C@H]([C@@H](C)O)NC(=O)[C@@H]2CSSC[C@@H]3NC(=O)[C@H]([C@@H](C)O)NC(=O)CNC(=O)CNC(=O)[C@H](C(C)C)NC(=O)[C@@H]4CSSC[C@H](NC(=O)[C@H]([C@@H](C)O)NC(=O)[C@H](CSSC[C@H](NC(=O)[C@H](C(C)C)NC(=O)[C@@H]5CCCN5C1=O)C(=O)NCC(=O)N[C@@H](CCC(=O)O)C(=O)N[C@@H]([C@@H](C)O)C(=O)N4)NC(=O)CNC(=O)[C@@H]1CCCN1C(=O)[C@H]([C@@H](C)O)NC(=O)[C@H](CC(N)=O)NC3=O)C(=O)N[C@@H](CO)C(=O)N[C@@H](Cc1c[nH]c3ccccc13)C(=O)N1CCC[C@H]1C(=O)N[C@@H](C(C)C)C(=O)N2 [kB1, kalata B1]",–,–,–,>80,–,–,80,–,>80,>80,–,–,–
"CC[C@H](C)[C@@H]1NC(=O)[C@H](C)NC(=O)[C@H](CO)NC(=O)[C@H]([C@@H](C)O)NC(=O)[C@H](CC(C)C)NC(=O)[C@@H]2CSSC[C@@H]3NC(=O)[C@H](C(C)C)NC(=O)[C@H](CCCCN)NC(=O)[C@H](CO)NC(=O)[C@H](CCCCN)NC(=O)[C@@H]4CSSC[C@H](NC(=O)[C@H](CO)NC(=O)[C@H](CCC(=O)O)NC(=O)CNC(=O)[C@H](CSSC[C@H](NC(=O)CNC1=O)C(=O)N[C@@H](CO)C(=O)N4)NC(=O)[C@@H]1CCCN1C(=O)[C@H]([C@@H](C)CC)NC(=O)CNC(=O)[C@H](CC(N)=O)NC(=O)[C@H](CCCNC(=N)N)NC(=O)[C@H](Cc1ccc(O)cc1)NC3=O)C(=O)N[C@@H](C(C)C)C(=O)N[C@@H](Cc1c[nH]c3ccccc13)C(=O)N[C@@H]([C@@H](C)CC)C(=O)N1CCC[C@H]1C(=O)N2 [cyO3] (cyclo(AIGCSCKSKVCYRNGIPCGESCVWIPCLTS); disulfide 4-18, 6-22, 11-27)",25,0.8,100,–,67,6.25,1.5,75,–,–,–,–,0.8 to 12.5
"CC[C@H](C)[C@@H]1NC(=O)[C@H](C)NC(=O)[C@H](C)NC(=O)[C@H](CO)NC(=O)[C@H]([C@@H](C)CC)NC(=O)[C@@H]2CSSC[C@@H]3NC(=O)[C@H](C(C)C)NC(=O)[C@H](CCCCN)NC(=O)[C@H](CO)NC(=O)[C@H](CCCCN)NC(=O)[C@@H]4CSSC[C@H](NC(=O)[C@H](CO)NC(=O)[C@H](CCC(=O)O)NC(=O)CNC(=O)[C@H](CSSC[C@H](NC(=O)CNC1=O)C(=O)N[C@@H](CO)C(=O)N4)NC(=O)[C@@H]1CCCN1C(=O)[C@H]([C@@H](C)CC)NC(=O)CNC(=O)[C@H](CC(N)=O)NC(=O)[C@H](CCCNC(=N)N)NC(=O)[C@H](Cc1ccc(O)cc1)NC3=O)C(=O)N[C@@H](C(C)C)C(=O)N[C@@H](Cc1c[nH]c3ccccc13)C(=O)N[C@@H]([C@@H](C)CC)C(=O)N1CCC[C@H]1C(=O)N2 [cyO13] (cyclo(AAIGCSCKSKVCYRNGIPCGESCVWIPCIS); disulfide 5-19, 7-23, 12-28)",–,3,–,–,130,6.25,3,–,–,–,–,–,–
